The text below walks through data of publication PMC5171706 (2016).

The term ΔTm denotes the change in melting temperature against a reference sample.

Assay [1] deals with Pu24T (DNA, G4) TGAGGGTGGTGAGGGTGGGGAAGG
The assay is described as follows: 1H NMR titration. The settings on record: K+ (potassium phosphate); 298 K, 400 μM Piperine, H2O/D2O 9:1; Piperine resonances broaden.

Assay [2] shares this test system. The assay is described as follows: gel mobility shift. To be noted: K+ (10 mM potassium phosphate, 50 mM KCl); 20 μM DNA, room temperature.
For assay [3] the test system is unchanged. The assay can be described thus: UV melting at 295 nm. The settings on record: K+ (10 mM potassium phosphate, 50 mM KCl); pH 7.0; derived from two Tm (75.0 and 79.0 °C); D/N = 2.0; 78.0 °C at D/N 1.0.
The test system is the same in assay [4]. The assay can be described thus: fluorescence titration of Piperine. The settings on record: K+ (10 mM potassium phosphate, 50 mM KCl); pH 7.0, 25 °C; two-site saturation fit, Kd1 and Kd2 only in Figure 2 and Table S1.
Assay [5] concerns tel22 (DNA, G4) AGGGTTAGGGTTAGGGTTAGGG
The assay can be described thus: fluorescence titration of Piperine. The settings on record: K+ (10 mM potassium phosphate, 50 mM KCl); pH 7.0, 25 °C; two-site saturation fit, Kd1 and Kd2 only in Figure 2 and Table S1.

For assay [6] the test system is unchanged. The assay can be described thus: time-resolved fluorescence (lifetime). The settings on record: K+ (10 mM potassium phosphate, 50 mM KCl); 40.0 μM Piperine, D/N 1.0 and 2.0; lifetime increases.

Consider `O=C(/C=C/C=C/c1ccc2c(c1)OCO2)N1CCCCC1`, for which the binding entry in assay [1], in assay [2] and in assay [6] was “yes” in each case. Also, the shift in melting temperature (ΔTm) in assay [3] came to 4.0 °C. Moreover, the Kd1 in assay [4] was 2.5 nM; in assay [5] it was 87.5 nM.
